# From article PMC5218480 (PLoS ONE, 2017)
# System: MV-4-11 cells
# Assay: Gene expression microarray analysis (Affymetrix PrimeView) and GSEA
# Assay type: cell-based, human
# Parameters: RFU PODN (11730768_x_at) / Fold change /veh PODN (11730768_x_at) / RFU LINC00158 (11744669_a_at) / Fold change /veh LINC00158 (11744669_a_at) / RFU DUSP10 (11751237_a_at) / Fold change /veh DUSP10 (11751237_a_at) / RFU ID3 (11757404_x_at) / Fold change /veh ID3 (11757404_x_at) / RFU PLEKHG5 (11737974_s_at) / Fold change /veh PLEKHG5 (11737974_s_at) / RFU LRRC4B (11730491_at) / Fold change /veh LRRC4B (11730491_at) / RFU GIMAP4 (11747438_a_at) / Fold change /veh GIMAP4 (11747438_a_at) / RFU KRT8 (11758183_x_at) / Fold change /veh KRT8 (11758183_x_at) / RFU CNN1 (11734310_a_at) / Fold change /veh CNN1 (11734310_a_at) / RFU VPS37D (11726825_at) / Fold change /veh VPS37D (11726825_at) / RFU C10orf10 (11716522_x_at) / Fold change /veh C10orf10 (11716522_x_at) / RFU KIR2DL2 /// KIR2DL4 /// KIR2DL5A /// KIR2DL5B /// KIR2DS1 /// KIR2DS2 /// KIR2DS3 /// KIR2DS4 /// KIR3DL3 /// KIR3DL3 /// KIR3DS1 (11738374_at) / Fold change /veh KIR2DL2 /// KIR2DL4 /// KIR2DL5A /// KIR2DL5B /// KIR2DS1 /// KIR2DS2 /// KIR2DS3 /// KIR2DS4 /// KIR3DL3 /// KIR3DL3 /// KIR3DS1 (11738374_at) / RFU C1QL1 (11718748_at) / Fold change /veh C1QL1 (11718748_at) / RFU TMPRSS4 (11747572_a_at) / Fold change /veh TMPRSS4 (11747572_a_at) / RFU HAMP (11756126_x_at) / Fold change /veh HAMP (11756126_x_at) / RFU RNFT2 (11725882_a_at) / Fold change /veh RNFT2 (11725882_a_at) / RFU NR4A2 (11747474_a_at) / Fold change /veh NR4A2 (11747474_a_at) / RFU ABCC12 (11746883_a_at) / Fold change /veh ABCC12 (11746883_a_at) / RFU TMEM136 (11760407_x_at) / Fold change /veh TMEM136 (11760407_x_at) / RFU CLDN22 /// WWC2 (11732394_at) / Fold change /veh CLDN22 /// WWC2 (11732394_at) / RFU HLA-DPB1 (11760878_x_at) / Fold change /veh HLA-DPB1 (11760878_x_at) / RFU SPINT1 (11716480_a_at) / Fold change /veh SPINT1 (11716480_a_at) / RFU GAP43 (11754022_s_at) / Fold change /veh GAP43 (11754022_s_at) / RFU A4GNT (11735810_at) / Fold change /veh A4GNT (11735810_at) / RFU PRB3 (11715151_x_at) / Fold change /veh PRB3 (11715151_x_at) / RFU TUBB4B (11761932_at) / Fold change /veh TUBB4B (11761932_at) / RFU CAPN14 (11732068_a_at) / Fold change /veh CAPN14 (11732068_a_at) / RFU TMCC2 (11721928_a_at) / Fold change /veh TMCC2 (11721928_a_at) / RFU IRGQ (11745062_a_at) / Fold change /veh IRGQ (11745062_a_at) / RFU FAM174B (11720279_a_at) / Fold change /veh FAM174B (11720279_a_at) / RFU TMPRSS4 (11748680_a_at) / Fold change /veh TMPRSS4 (11748680_a_at) / RFU FAM212B (11763350_a_at) / Fold change /veh FAM212B (11763350_a_at) / RFU PLEKHG5 (11743358_a_at) / Fold change /veh PLEKHG5 (11743358_a_at) / RFU ZSCAN30 (11745921_a_at) / Fold change /veh ZSCAN30 (11745921_a_at) / RFU CMKLR1 (11741424_a_at) / Fold change /veh CMKLR1 (11741424_a_at) / RFU LOC101060620 /// MAPK8IP1 (11723275_at) / Fold change /veh LOC101060620 /// MAPK8IP1 (11723275_at) / RFU SPTSSB (11747773_x_at) / Fold change /veh SPTSSB (11747773_x_at) / RFU PRSS12 (11739890_at) / Fold change /veh PRSS12 (11739890_at) / RFU BIN1 (11741810_x_at) / Fold change /veh BIN1 (11741810_x_at) / RFU WNT11 (11732464_a_at) / Fold change /veh WNT11 (11732464_a_at) / RFU C10orf10 (11716521_a_at) / Fold change /veh C10orf10 (11716521_a_at) / RFU C5orf56 (11738089_at) / Fold change /veh C5orf56 (11738089_at) / RFU CYB561 (11721691_x_at) / Fold change /veh CYB561 (11721691_x_at) / RFU ANKRD19P (11752326_a_at) / Fold change /veh ANKRD19P (11752326_a_at) / RFU OR2T12 /// OR2T33 /// OR2T8 (11738714_s_at) / Fold change /veh OR2T12 /// OR2T33 /// OR2T8 (11738714_s_at) / RFU VCAN (11748164_a_at) / Fold change /veh VCAN (11748164_a_at) / RFU JSRP1 (11732532_at) / Fold change /veh JSRP1 (11732532_at) / RFU KRTAP10-11 (11738290_x_at) / Fold change /veh KRTAP10-11 (11738290_x_at) / RFU MYO3A (11730013_a_at) / Fold change /veh MYO3A (11730013_a_at) / RFU EBF3 (11725865_a_at) / Fold change /veh EBF3 (11725865_a_at) / RFU CAMK2N1 (11719241_x_at) / Fold change /veh CAMK2N1 (11719241_x_at) / RFU C5orf56 (11738088_a_at) / Fold change /veh C5orf56 (11738088_a_at) / RFU OLFML3 (11715873_a_at) / Fold change /veh OLFML3 (11715873_a_at) / RFU LOC100653217 /// NTM (11731650_a_at) / Fold change /veh LOC100653217 /// NTM (11731650_a_at) / RFU MAPK11 (11762145_a_at) / Fold change /veh MAPK11 (11762145_a_at) / RFU FIZ1 (11724087_x_at) / Fold change /veh FIZ1 (11724087_x_at) / RFU OASL (11726364_x_at) / Fold change /veh OASL (11726364_x_at) / RFU SOX15 (11748057_x_at) / Fold change /veh SOX15 (11748057_x_at) / RFU CD79A (11719716_a_at) / Fold change /veh CD79A (11719716_a_at) / RFU HIST1H1D (11736915_at) / Fold change /veh HIST1H1D (11736915_at) / RFU CASKIN2 (11723855_a_at) / Fold change /veh CASKIN2 (11723855_a_at) / RFU LOC730098 (11760151_x_at) / Fold change /veh LOC730098 (11760151_x_at) / RFU OR4N2 (11742367_at) / Fold change /veh OR4N2 (11742367_at) / RFU PRRT2 (11749266_a_at) / Fold change /veh PRRT2 (11749266_a_at) / RFU SNX32 (11753110_a_at) / Fold change /veh SNX32 (11753110_a_at) / RFU CDHR5 (11726645_a_at) / Fold change /veh CDHR5 (11726645_a_at) / RFU RCAN1 (11760418_a_at) / Fold change /veh RCAN1 (11760418_a_at) / RFU FAM167A (11723789_a_at) / Fold change /veh FAM167A (11723789_a_at) / RFU FAM26E (11764081_at) / Fold change /veh FAM26E (11764081_at) / RFU ISYNA1 (11749810_s_at) / Fold change /veh ISYNA1 (11749810_s_at) / RFU ACY1 (11761880_at) / Fold change /veh ACY1 (11761880_at) / RFU 11764098_at / Fold change /veh 11764098_at / RFU SAMD14 (11745864_x_at) / Fold change /veh SAMD14 (11745864_x_at) / RFU NPB (11741838_a_at) / Fold change /veh NPB (11741838_a_at) / RFU TMPRSS6 (11731388_a_at) / Fold change /veh TMPRSS6 (11731388_a_at) / RFU KRTAP10-2 (11738614_at) / Fold change /veh KRTAP10-2 (11738614_at) / RFU ARHGAP8 /// PRR5-ARHGAP8 (11727945_x_at) / Fold change /veh ARHGAP8 /// PRR5-ARHGAP8 (11727945_x_at) / RFU KRTAP5-7 /// NADSYN1 (11734609_at) / Fold change /veh KRTAP5-7 /// NADSYN1 (11734609_at) / RFU RASL12 (11751679_a_at) / Fold change /veh RASL12 (11751679_a_at) / RFU CDKN2B (11736163_a_at) / Fold change /veh CDKN2B (11736163_a_at) / RFU PRF1 (11729649_at) / Fold change /veh PRF1 (11729649_at) / RFU, ZNF638 /// ZNF638-IT1 / Fold change vs veh, ZNF638 /// ZNF638-IT1 / RFU, PANK3 / Fold change vs veh, PANK3 / RFU, SH3YL1 / Fold change vs veh, SH3YL1 / RFU, ZEB2 / Fold change vs veh, ZEB2 / RFU, NRIP1 / Fold change vs veh, NRIP1 / RFU, PTTG1IP / Fold change vs veh, PTTG1IP / RFU, CAPN2 / Fold change vs veh, CAPN2 / RFU, MED14 / Fold change vs veh, MED14 / RFU, SNORA58 / Fold change vs veh, SNORA58 / RFU, C1orf63 / Fold change vs veh, C1orf63 / RFU, LRRFIP1 / Fold change vs veh, LRRFIP1 / RFU, NDUFAF7 / Fold change vs veh, NDUFAF7 / RFU, SLC12A2 / Fold change vs veh, SLC12A2 / RFU, IBTK / Fold change vs veh, IBTK / RFU, ESF1 / Fold change vs veh, ESF1 / Fold change vs veh, TMEM50B / RFU, TAOK1 / Fold change vs veh, TAOK1 / RFU, ACBD3 / Fold change vs veh, ACBD3 / RFU, TMA16 / Fold change vs veh, TMA16 / RFU, RWDD3 / Fold change vs veh, RWDD3 / RFU, BCAT1 / Fold change vs veh, BCAT1 / RFU, EDEM3 / Fold change vs veh, EDEM3 / RFU, TMEM33 / Fold change vs veh, TMEM33 / RFU, WDR75 / Fold change vs veh, WDR75 / RFU, AHCTF1 / Fold change vs veh, AHCTF1 / RFU, TFRC / Fold change vs veh, TFRC / RFU, ZDHHC17 / Fold change vs veh, ZDHHC17 / RFU, NOM1 / Fold change vs veh, NOM1 / RFU, ARL8B / Fold change vs veh, ARL8B / RFU, ZBTB11 / Fold change vs veh, ZBTB11 / RFU, TAMM41 / Fold change vs veh, TAMM41 / RFU, KIAA1704 /// LOC100996395 / Fold change vs veh, KIAA1704 /// LOC100996395 / RFU, ING1 / Fold change vs veh, ING1 / RFU, TRMT61B / Fold change vs veh, TRMT61B / RFU, FUBP3 / Fold change vs veh, FUBP3 / RFU, TP53 / Fold change vs veh, TP53 / RFU, TNKS2 / Fold change vs veh, TNKS2 / RFU, ZFP14 / Fold change vs veh, ZFP14 / RFU, ACTR2 / Fold change vs veh, ACTR2 / RFU, PPP3R1 / Fold change vs veh, PPP3R1 / RFU, PIK3R1 / Fold change vs veh, PIK3R1 / RFU, HNRNPA1 / Fold change vs veh, HNRNPA1 / RFU, RNF170 / Fold change vs veh, RNF170 / RFU, ZNF28 / Fold change vs veh, ZNF28 / RFU, RNGTT / Fold change vs veh, RNGTT / RFU, OGT / Fold change vs veh, OGT / RFU, BRD1 / Fold change vs veh, BRD1 / RFU, MARS / Fold change vs veh, MARS / RFU, ZNF655 / Fold change vs veh, ZNF655 / RFU, FAHD1 / Fold change vs veh, FAHD1 / RFU, BDP1 / Fold change vs veh, BDP1 / RFU, LRRCC1 / Fold change vs veh, LRRCC1 / RFU, ARID1A / Fold change vs veh, ARID1A / RFU, ZNF146 / Fold change vs veh, ZNF146 / RFU, ZNF330 / Fold change vs veh, ZNF330 / RFU, GPN3 / Fold change vs veh, GPN3 / RFU, C9orf123 / Fold change vs veh, C9orf123 / RFU, N4BP2L2 / Fold change vs veh, N4BP2L2 / RFU, ARFIP1 / Fold change vs veh, ARFIP1 / RFU, FAM179B / Fold change vs veh, FAM179B / RFU, BCL10 / Fold change vs veh, BCL10 / RFU, UHRF1BP1L / Fold change vs veh, UHRF1BP1L / RFU, BET1 / Fold change vs veh, BET1 / RFU, CNOT2 / Fold change vs veh, CNOT2 / RFU, ZNF268 / Fold change vs veh, ZNF268 / Fold change vs veh, ZNF507 / RFU, DGCR2 / Fold change vs veh, DGCR2 / RFU, WDSUB1 / Fold change vs veh, WDSUB1 / Fold change vs veh, HSP90B1 /// MIR3652 / RFU, ADSS / Fold change vs veh, ADSS / RFU, GK / Fold change vs veh, GK / RFU, ZNF148 / Fold change vs veh, ZNF148 / RFU, TAF9 / Fold change vs veh, TAF9 / RFU, SLC1A5 / Fold change vs veh, SLC1A5 / RFU, SLMO2 / Fold change vs veh, SLMO2 / RFU, ABCC4 / Fold change vs veh, ABCC4 / RFU, LOC101060439 /// RAP1B / Fold change vs veh, LOC101060439 /// RAP1B / RFU, RFX7 / Fold change vs veh, RFX7 / RFU, GTPBP10 / Fold change vs veh, GTPBP10 / RFU, CNEP1R1 / Fold change vs veh, CNEP1R1 / RFU, BIVM-ERCC5 /// ERCC5 / Fold change vs veh, BIVM-ERCC5 /// ERCC5 / RFU, ILF3 / Fold change vs veh, ILF3 / RFU 11762660_at / Fold change /veh 11762660_at / RFU VCAN (11757783_s_at) / Fold change /veh VCAN (11757783_s_at) / RFU DDX43 (11728927_at) / Fold change /veh DDX43 (11728927_at) / RFU KRT8 (11758188_x_at) / Fold change /veh KRT8 (11758188_x_at) / RFU NKD1 (11759106_at) / Fold change /veh NKD1 (11759106_at) / RFU SRD5A1 (11742802_a_at) / Fold change /veh SRD5A1 (11742802_a_at) / RFU TPSAB1 /// TPSB2 (11721975_s_at) / Fold change /veh TPSAB1 /// TPSB2 (11721975_s_at) / RFU GSTM3 (11746129_a_at) / Fold change /veh GSTM3 (11746129_a_at) / RFU IL23R (11737362_x_at) / Fold change /veh IL23R (11737362_x_at) / RFU TMEM51 (11727254_a_at) / Fold change /veh TMEM51 (11727254_a_at) / RFU PIWIL2 (11732686_x_at) / Fold change /veh PIWIL2 (11732686_x_at) / RFU ORM1 (11744905_x_at) / Fold change /veh ORM1 (11744905_x_at) / RFU CCDC152 (11743942_at) / Fold change /veh CCDC152 (11743942_at) / RFU ECM1 (11717891_a_at) / Fold change /veh ECM1 (11717891_a_at) / RFU IL23R (11748794_a_at) / Fold change /veh IL23R (11748794_a_at) / RFU TNFAIP8L3 (11732012_x_at) / Fold change /veh TNFAIP8L3 (11732012_x_at) / RFU MBOAT4 (11741988_at) / Fold change /veh MBOAT4 (11741988_at) / RFU 11764193_at / Fold change /veh 11764193_at / RFU TMEM53 (11763286_at) / Fold change /veh TMEM53 (11763286_at) / RFU MAGEB2 (11727129_at) / Fold change /veh MAGEB2 (11727129_at) / RFU TMEM200A (11744735_a_at) / Fold change /veh TMEM200A (11744735_a_at) / RFU CCDC152 (11751479_a_at) / Fold change /veh CCDC152 (11751479_a_at) / RFU FAM211A (11726209_a_at) / Fold change /veh FAM211A (11726209_a_at) / RFU RGS16 (11746705_a_at) / Fold change /veh RGS16 (11746705_a_at) / RFU VCAN (11755009_s_at) / Fold change /veh VCAN (11755009_s_at) / RFU RHOB (11743442_s_at) / Fold change /veh RHOB (11743442_s_at) / RFU RGS16 (11720943_a_at) / Fold change /veh RGS16 (11720943_a_at) / RFU RGS16 (11720944_at) / Fold change /veh RGS16 (11720944_at) / RFU, VPS4B / Fold change vs veh, VPS4B / RFU, CREB1 / Fold change vs veh, CREB1 / RFU, DNAJC13 / Fold change vs veh, DNAJC13 / RFU, GNAQ / Fold change vs veh, GNAQ / RFU, CDK5R1 / Fold change vs veh, CDK5R1 / RFU, ZRANB3 / Fold change vs veh, ZRANB3 / RFU, CUL4A / Fold change vs veh, CUL4A / RFU, CCNY / Fold change vs veh, CCNY / RFU, UFL1 / Fold change vs veh, UFL1 / RFU, COG3 / Fold change vs veh, COG3 / RFU, DIAPH2 / Fold change vs veh, DIAPH2 / RFU, SKA2 / Fold change vs veh, SKA2 / RFU, AFF3 / Fold change vs veh, AFF3 / RFU, LMF1 / Fold change vs veh, LMF1 / RFU, IPO11 / Fold change vs veh, IPO11 / RFU, DFFB / Fold change vs veh, DFFB / RFU, FOXP1 / Fold change vs veh, FOXP1 / RFU, CARD8 / Fold change vs veh, CARD8 / RFU, STRN3 / Fold change vs veh, STRN3 / RFU, ADK / Fold change vs veh, ADK / RFU, RASSF2 / Fold change vs veh, RASSF2 / RFU, WIPF1 / Fold change vs veh, WIPF1 / RFU, LARP1B / Fold change vs veh, LARP1B / RFU, RASA1 / Fold change vs veh, RASA1 / RFU, RB1 / Fold change vs veh, RB1 / RFU, PPFIA1 / Fold change vs veh, PPFIA1 / RFU, MAT2A / Fold change vs veh, MAT2A / RFU, CCT5 / Fold change vs veh, CCT5 / RFU, WDR92 / Fold change vs veh, WDR92 / RFU, CUX1 / Fold change vs veh, CUX1 / RFU, TTC7A / Fold change vs veh, TTC7A / RFU, TMEM135 / Fold change vs veh, TMEM135 / RFU, DEPTOR / Fold change vs veh, DEPTOR / RFU, CPM / Fold change vs veh, CPM / RFU, DNAJB6 / Fold change vs veh, DNAJB6 / RFU, CACNA2D3 / Fold change vs veh, CACNA2D3 / RFU, DTX4 / Fold change vs veh, DTX4 / RFU, TFCP2 / Fold change vs veh, TFCP2 / RFU, GMCL1 /// GMCL1P1 / Fold change vs veh, GMCL1 /// GMCL1P1 / RFU, AEBP2 / Fold change vs veh, AEBP2 / RFU, SNHG1 /// SNORD22 /// SNORD25 /// SNORD26 /// SNORD27 /// SNORD28 /// SNORD29 /// SNORD31 / Fold change vs veh, SNHG1 /// SNORD22 /// SNORD25 /// SNORD26 /// SNORD27 /// SNORD28 /// SNORD29 /// SNORD31 / Fold change (Aza/veh), C12orf56 (ProbeSet 11735607_a_at) / Fold change (ACY-1035/veh), C12orf56 (ProbeSet 11735607_a_at) / Fold change (Aza/veh), FGFR1OP (ProbeSet 11751329_s_at) / Fold change (ACY-1035/veh), FGFR1OP (ProbeSet 11751329_s_at) / Fold change (Aza/veh), VPS36 (ProbeSet 11739960_a_at) / Fold change (ACY-1035/veh), VPS36 (ProbeSet 11739960_a_at) / RFU SYPL1 (11715823_x_at) / Fold change /veh SYPL1 (11715823_x_at) / RFU IGFBP7 (11715501_s_at) / Fold change /veh IGFBP7 (11715501_s_at) / RFU REEP3 (11722064_at) / Fold change /veh REEP3 (11722064_at) / RFU IGLL1 (11728026_x_at) / Fold change /veh IGLL1 (11728026_x_at): dose or concentration left out as unconfirmed
# Conditions: MV-4-11 cells, 48 hours
smiles,measurement,value
Nc1ncn([C@@H]2O[C@H](CO)[C@@H](O)[C@H]2O)c(=O)n1 [azacitidine],RFU FAM174B (11720279_a_at),25.09 RFU
